Experimental data taken from patent US20190269614A1, “CHEWABLE TABLET CONTAINING VITAMIN C SODIUM AND PREPARATION METHOD THEREOF” (GUANGXI SANPOTEL HEALTH INDUSTRY CO. LTD, priority 2016, published 2019).

Assay: Lubricant trial: tabletting of vitamin C sodium chewable tablets with different lubricants
Format: physicochemical
Conditions: for Tabletting condition: granules with the named lubricant; for Friability / Hardness: tablets with the named lubricant
From the text: During tabletting, in order to increase granule fluidity, and ensure good filling and even distribution of tablet density, a certain amount of lubricant needs to be added to solve the problems of poor granule fluidity and sticking during tabletting. In the experiment of the present application, tabletting conditions when magnesium stearate, micro-powder silica gel, talcum powder, sodium dodecyl sulfate and mannitol were used as the lubricant were compared, and results are shown in Table 3.
From the test results in Table 3, it can be seen that when magnesium stearate, sodium dodecyl sulfate and mannitol are used, fluidity is good and sticking during tabletting is avoided, and prepared tablets have appropriate hardness and smooth and beautiful surfaces; when micro-powder silica gel is added, fluidity is good and sticking during tabletting is avoided, but the hardness of prepared tablets is low; and when talcum powder is added, fluidity is poor and sticking occurs during tabletting, and prepared tablets have large hardness. Therefore, magnesium stearate, sodium dodecyl sulfate and mannitol are selected as the lubricant in the present application.

| Tabletting condition | Friability [%] | Hardness [N] | Compound |
| --- | --- | --- | --- |
| non-sticking | 0.39 | 54 | OC[C@@H](O)[C@@H](O)[C@H](O)[C@H](O)CO [mannitol] |
| non-sticking | 0.42 | 59 | CCCCCCCCCCCCOS(=O)(=O)[O-].[Na+] [sodium dodecyl sulfate] |

| Compound | Tabletting condition | Friability [%] | Hardness [N] |
| --- | --- | --- | --- |
| magnesium stearate | non-sticking | 0.34 | 49 |
